# Experimental data reported in US7662629B2, “Peptide scaffolds for transfer of molecules into eukaryotic cells” (Trustees of the University of Pennsylvania, priority 1998, dated 2010).
# Assays:
# confluent BAEC [1] = experiment: Total β-galactosidase expression measured fluorometrically in cell lysates; format: cell-based, bovine; conditions: for enhancement of β-galactosidase expression / gene transfer: lipofection; for increase in total β-galactosidase expression over transfection with plasmid alone: plasmid precomplexed with peptide, lipofectamine
# Description: (§1) Bovine aortic endothelial cells (BAEC) (passage<10) are grown to confluence, passed to a 6-well culture dish at a split ratio of 1:3, and then grown to confluence as described by Subramanian, A. and Diamond, S. L. Tissue Engineering 3, 39-52, 1997. Growth medium is Dulbecco's modified Eagle's medium (DMEM) containing 10% heat inactivated newborn calf serum, 0.30 mg/ml of glutamine, 150 U/ml penicillin and 0.15 mg/ml streptomycin (GIBCO, Grand Island, N.Y.). Hela cells (Hela S3 ATCC No. CCL 2.2) are grown in DMEM media (Gibco BRL) supplemented with 10% fetal calf serum as described by Ranjan, V. and Diamond, S. L. Biochem. Biophys. Res. Comm. 196, 79, 1993.
# (§2) Cationic liposomes (Lipofectamine Reagent, Gibco-BRL), containing a 3:1 by weight mixture of polycationic lipid 2,3-dioleoyloxy-N-[2(sperminecarboxamido)ethyl]-N,N-dimethyl-1 propanaminium trifluoroacetate (DOSPA) and the neutral lipid dioleoyl phosphatidylethanolamine (DOPE) was used in all transfections in accordance with procedures described by Subramanian, A. and Diamond, S. L. Tissue Engineering 3, 39-52, 1997. Pure liposome (10 μl) diluted to 100 μl are added to the DNA/scaffold complex, incubated for 45 minutes. Then 0.8 ml of OPTIMEM media is added to this mixture which is then overlaid on the cells. The cells are incubated for 2 hours at 37 ? C. After two hours, the mixture is aspirated, 4% serum in OPTIMEM media is added, and the cells are allowed to grow for 48 hours. The cells are then fixed and assayed for ? -gal activity. During the transfections, the cells are continuously monitored for cell viability and adhesion.
# To assay for ? gal to measure % transfection, cells are stained with XGAL as described by Subramanian, A. and Diamond, S. L. Tissue Engineering 3, 39-52, 1997. The percent of cells stained per field of view is counted using a Zeiss 125M inverted microscope. The count is averaged from at least 4 fields of view for each transfected monolayer. To measure ? -gal expression quantitatively, cell lysates are prepared and tested for ? -gal activity against the fluorogenic substrate, fluorescein di- ? -D-galactopyranoside (FDG, F-1179 Molecular Probes) which is not fluorescent until cleaved to fluorescein monogalactoside and then to fluorescein (excitation/emission: 494/520 nM). For flow cytometry, the trypsinized cell suspension is supplemented with serum, pelleted (100 g) and resuspended in staining medium to approximately 10^7 cells/ml. A 100 μL cell suspension is maintained at 37 ? C and 100 μl of 2 mM FDG maintained at 37 ? C is then added to the cell suspension, mixed rapidly and incubated at 37 ? C for 1 minute. The FDG loading is stopped at the end of 1 minute by adding 1.8 mL of ice-cold staining medium containing 1.5 μM Propidium Iodide and 1 mM PETG. The cells are kept on ice prior to flow cytometer analysis using a Becton Dickinson FACScan system. Unstained BAEC cells allow compensation for autofluorescence. The histogram showing fluorescence/cell to the number of cells is used to calculate the % transfection.
# plasmid = experiment: Ethidium bromide fluorescence release assay of plasmid condensation; format: binding; conditions: electrostatic interactions
# Source text: Several different cationic scaffolds that are rich in amine suitable for conjugation reactions and which mediate electrostatic complexation or condensation with plasmid are used. These scaffolds can include: SV40 T antigen NLS (SVT=CGYGPKKKRKVGG (SEQ ID NO:5)), a mutated version of the SV40 T antigen NLS (muT=VKKGKCRPGKGYG (SEQ ID NO:2)), poly-L-lysine (MW 1, 4, and 30-70 kDa), histone H1, and hydrophilic amine-terminated dendrimers (87,340 MW) of small size (8.4 nm) available through Polysciences, Inc. (Warrington, Pa.). These scaffolds are tested for DNA condensation using a fluorescence quench assay of ethidium bromide labeled plasmid. Synthetic peptides with a C-terminus Gly-Gly-Gly-Cys-COOH (SEQ ID NO:19) linked to M9 or KNS are grafted at 1:1 to 3:1 to the activated amine-rich scaffolds. The crosslinker succinimidyl 4-(N-maleimidomethyl)cyclohexane-1 (SMCC, Pierce) is added at a final concentration of 10 mM (at 10% DMSO) to 100 μg amine rich scaffold (pH 7.2, 25 ? C for 2 hours) to react the SMCC NHS-ester to the primary amine of the scaffold. Excess SMCC and DMSO are removed by sephadex G-15 chromatography. The activated scaffold is conjugated with equimolar or 2 to 3-fold excess of the KNS or M9 peptide at 4 μC (16 hours) by maleimide reaction with the SH moiety of the C-terminal cysteine. Individual reaction species are isolated by electroelution or FLPC. […]
# confluent BAEC [2] = experiment: Flow cytometry (FDG) of confluent BAEC lipofected with pCMVβgal ± peptides; format: cell-based, bovine; conditions: 1 μg plasmid
# Description: as §1
# as §2, with “The cells are incubated for 2 hours at 37 ? C. After two hours, the mixture is aspirated, 4% serum in OPTIMEM media is added, and the cells are allowed to grow for 48 hours. The cells are then fixed and assayed for ? -gal activity.” left out, “adhesion. […]” for “adhesion.”
Substance,enhancement of β-galactosidase expression / gene transfer (confluent BAEC [1]),increase in total β-galactosidase expression over transfection with plasmid alone (confluent BAEC [1]) [fold],plasmid condensation (plasmid),percent transfection: percent of cells with fluorescence ≧100 f.u. (confluent BAEC [2]) [%]
VKKGKCRPGKGYG [ScT],little benefit,4,condenses plasmid effectively,–
polylysine [reference compound],A similar level of increase,–,–,–
NQSSNFGPMKGGNFGGRSSGPYGGGGQYFAKPRNQGGY-GGGC (NQSSNFGPMKGGNFGGRSSGPYGGGGQYFAKPRNQGGYGGGC; C-terminal GGGC extension) [M9 peptide],–,18.3,–,55
"CGYGPKKKRKVGG [SV40 T-antigen consensus NLS, reference compound]",A similar level of increase,–,–,–
